Measured values published in US6794412B1, “Treatment of thrombosis by combined use of a factor Xa inhibitor and aspirin” (Bristol-Myers Squibb Pharma Company, priority 1999, dated 2004).

Test system: rabbit model of arterial thrombosis
Assay: Electrically induced carotid artery thrombosis in rabbits, carotid blood flow over 90 min
Type: in vivo
Method: Rabbits were anesthetized with ketamine (50 mg/kg i.m.) and xylazine (10 mg/kg i.m.) and then surgically prepared with arterial and venous catheters. An electromagnetic flow probe was placed on a segment of an isolated carotid artery to monitor blood flow. Thrombus formation was induced by electrical stimulation of the carotid artery for 3 min at 4 mA using an external stainless-steel bipolar electrode. Carotid blood flow was measured continuously over a 90-min period to monitor thrombus occlusion. Test agents were infused intravenously 1 hour prior to the electrical stimulation of the carotid artery and continuously during the 90-min period.

[1] = Factor Xa inhibitor alone 0.1 mg/kg/hr i.v. infusion

Row | SMILES | prevention of occlusion of the carotid artery [1] | also measured
1 | CC(=O)Oc1ccccc1C(=O)O [Aspirin] |  | prevention of occlusion of the carotid artery (aspirin alone 1 mg/kg/hr i.v. infusion from 1 hour before stimulation and during 90 min): did not prevent the occlusion of the artery
2 | CS(=O)(=O)c1ccccc1-c1ccc(NC(=O)c2cc(C(F)(F)F)nn2-c2cccc(CN)c2)c(F)c1.O=C(O)C(F)(F)F [Compound (1)] | did not prevent the occlusion of the artery | 
3 | NCc1cccc(-n2nc(C(F)(F)F)cc2C(=O)Nc2ccc(-c3ccccc3S(N)(=O)=O)cc2)c1.O=C(O)C(F)(F)F [Compound (3)] | did not prevent the occlusion of the artery | 
4 | CS(=O)(=O)O.Cc1noc(C)c1S(=O)(=O)N[C@@H](CNC(=O)C[C@H]1CC(c2ccc(C(=N)N)cc2)=NO1)C(=O)O [Compound (4)] |  | prevention of occlusion of the carotid artery (Compound (4) alone 0.03 mg/kg/hr i.v.): did not prevent the occlusion of the artery
